Some test systems named below: Malme-3M; KM12; T47D; HCT-15; SNB-75; OVCAR-5; Hs-578T; OVCAR-8; OVCAR-3; SF-295; U-251; RPMI-8226; NCI-H522; DU-145; SF-268; SK-MEL-28; NCI-H23; UO-31; MCF7; NCI-H460.
Common to all, as to assay: NCI tumour cell line growth inhibition, 48 h

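1) Cells in 96-well plates. 2) Compound, 48 h, 5 concentrations. 3) Linear interpolation between surrounding doses. 4) Unreached endpoint = highest concentration. Abbreviation: GI50, concentration required for 50% inhibition of growth.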 Activity calls are given as the source filed them. Rule as the data show it: active = GI50 up to about 1.1 µM and inactive = higher.

Turning to `O=C1Oc2ccccc2C(=O)/C1=C1/C=C(c2ccccc2)SS1`, the GI50 with Malme-3M is 96.4 µM (inactive); with KM12, > 100 µM (inactive); in the test on T47D, > 100 µM (inactive); in the test with HCT-15, 40 µM; in the test with SNB-75, > 100 µM (inactive); in the test with OVCAR-5, > 100 µM (inactive). The GI50 is > 100 µM (inactive) in the test on Hs-578T; > 100 µM (inactive) with OVCAR-8; 71.1 µM (inactive) in the test on OVCAR-3; > 100 µM (inactive) with SF-295; 76 µM (inactive) with U-251; > 100 µM (inactive) in the test on RPMI-8226. Moreover, the GI50 was 49.3 µM (inactive) with NCI-H522; 85.5 µM (inactive) in the test on DU-145; 86.7 µM (inactive) with SF-268; > 100 µM (inactive) with SK-MEL-28; > 100 µM (inactive) with NCI-H23; > 100 µM (inactive) in the test with UO-31. The GI50 in the test on MCF7 and with NCI-H460 was > 100 µM (inactive) throughout.

In the case of `COc1nn(Cc2ccccn2)c2ccc([N+](=O)[O-])cc12`, the GI50 in the test on Malme-3M is > 100 µM (inactive); in the test on KM12, > 100 µM (inactive); in the test on T47D it was 77.8 µM (inactive); in the test with HCT-15, 62.7 µM; in the test with SNB-75, 17.3 µM (inactive); in the test on OVCAR-5, > 100 µM (inactive). Further, the GI50 in the test with Hs-578T was 19.4 µM (inactive); in the test on OVCAR-8 it was > 100 µM (inactive); in the test on OVCAR-3 it was > 100 µM (inactive); in the test with SF-295, > 100 µM (inactive); with U-251 it was > 100 µM (inactive); in the test on RPMI-8226 it was 54.8 µM (inactive). Moreover, the GI50 in the test with NCI-H522 is 47.8 µM (inactive); in the test on DU-145, > 100 µM (inactive); in the test with SF-268, > 100 µM (inactive); with SK-MEL-28, > 100 µM (inactive); with NCI-H23, > 100 µM (inactive); in the test on UO-31 it was 32.4 µM (inactive). In addition, the GI50 with MCF7 and in the test with NCI-H460 was > 100 µM (inactive) each time.

Consider `CC1=NC(C)(C)[N+]([O-])=C1`, for which the GI50 in the test on Malme-3M is 8.73 µM (inactive); in the test on KM12 it was > 10 µM (inactive); in the test on T47D it was > 10 µM (inactive); with HCT-15 it was > 10 µM; in the test with SNB-75 it was 0.0718 µM (active); in the test with OVCAR-5 it was > 10 µM (inactive). Further, the GI50 in the test on Hs-578T, with OVCAR-8, in the test on OVCAR-3, in the test with SF-295, in the test on U-251 and in the test with RPMI-8226 was > 10 µM (inactive) throughout. The GI50 in the test with NCI-H522, with DU-145, in the test with SF-268, in the test with SK-MEL-28, in the test on NCI-H23 and in the test with UO-31 was > 10 µM (inactive) each time. The GI50 in the test on MCF7 and in the test on NCI-H460 was > 10 µM (inactive) in each case.

Take `O=C(Nc1ccc2c(c1)oc(=O)c1ccccc12)C(Cl)Cl`: the GI50 in the test on Malme-3M is > 100 µM (inactive); in the test on KM12, 33.2 µM (inactive); with T47D, > 100 µM (inactive); with HCT-15 it was 71.1 µM; in the test on SNB-75, > 100 µM (inactive); in the test on OVCAR-5 it was > 100 µM (inactive). Besides, the GI50 was > 100 µM (inactive) in the test on Hs-578T; > 100 µM (inactive) in the test with OVCAR-8; 28.8 µM (inactive) with OVCAR-3; > 100 µM (inactive) in the test on SF-295; 60.1 µM (inactive) in the test on U-251; 14.3 µM (inactive) in the test on RPMI-8226. Besides, the GI50 in the test on NCI-H522, with DU-145, with SF-268, in the test on SK-MEL-28, in the test on NCI-H23 and with UO-31 was > 100 µM (inactive) throughout. Further, the GI50 in the test with MCF7 is 34.8 µM (inactive); with NCI-H460, 27.6 µM (inactive).

As for `CCOC(=O)C(C)(C)C(O)C(C)C` (stereo not given), the GI50 is > 100 µM (inactive) with Malme-3M; > 100 µM (inactive) in the test on KM12; > 100 µM (inactive) in the test with T47D; > 100 µM in the test with HCT-15; > 100 µM (inactive) with SNB-75; > 100 µM (inactive) with OVCAR-5. The GI50 in the test with Hs-578T, with OVCAR-8, in the test on OVCAR-3, with SF-295, with U-251 and in the test on RPMI-8226 was > 100 µM (inactive) in each case. Moreover, the GI50 with NCI-H522, in the test with DU-145, in the test on SF-268, in the test on SK-MEL-28, in the test on NCI-H23 and with UO-31 was > 100 µM (inactive) each time. Further, the GI50 with MCF7 and in the test on NCI-H460 was > 100 µM (inactive) each time.

Turning to `N=C1N(c2ccccc2)C(=S)/C(=N/c2ccccc2)N1c1ccccc1`, the GI50 with Malme-3M is 13.4 µM (inactive); in the test with KM12 it was 14 µM (inactive); with T47D, 2.57 µM (inactive); with HCT-15 it was 7.19 µM; with SNB-75, 15.9 µM (inactive); with OVCAR-5, 15.6 µM (inactive). Besides, the GI50 in the test with Hs-578T was 10 µM (inactive); in the test on OVCAR-8, 4.95 µM (inactive); in the test on OVCAR-3 it was 2.28 µM (inactive); in the test on SF-295, 16.6 µM (inactive); in the test with U-251, 14.2 µM (inactive); with RPMI-8226, 2.31 µM (inactive). In addition, the GI50 in the test with NCI-H522 was 2.81 µM (inactive); with DU-145, 17.4 µM (inactive); in the test on SF-268 it was 14.9 µM (inactive); in the test on SK-MEL-28 it was 16.8 µM (inactive); in the test with NCI-H23, 6.03 µM (inactive); in the test with UO-31, 6.28 µM (inactive). The GI50 with MCF7 is 1.84 µM (inactive); with NCI-H460, 11.5 µM (inactive).

Consider `c1ccc(C2C3=C(c4ccccc4CC3)N3c4cc5c(cc4=NC34CCCCC24)Nc2ccccc2N=5)cc1` (stereo not given), for which the GI50 with Malme-3M is > 10 µM (inactive); in the test with KM12 it was > 10 µM (inactive); with T47D, 7.53 µM (inactive); with HCT-15 it was 8.39 µM; with SNB-75, 9.27 µM (inactive); in the test on OVCAR-5, > 10 µM (inactive). Moreover, the GI50 with Hs-578T was > 10 µM (inactive); with OVCAR-8 it was > 10 µM (inactive); with OVCAR-3 it was > 10 µM (inactive); in the test with SF-295, > 10 µM (inactive); in the test with U-251, > 10 µM (inactive); in the test with RPMI-8226 it was 5.11 µM (inactive). Besides, the GI50 in the test with NCI-H522 was 1 µM (active); in the test with DU-145 it was > 10 µM (inactive); in the test with SF-268 it was > 10 µM (inactive); in the test with SK-MEL-28, > 10 µM (inactive); with NCI-H23 it was 9.2 µM (inactive); in the test with UO-31, 6.55 µM (inactive). The figures for the GI50 with MCF7 and with NCI-H460 were 7.69 µM (inactive) and 5.14 µM (inactive), respectively.

On to `Cc1ccc2nc(-c3ccc(C(C)(C)C)cc3)oc(=O)c2c1`, for which the GI50 was 21.6 µM (inactive) in the test on Malme-3M; 7.38 µM (inactive) with KM12; 21.4 µM (inactive) in the test on T47D; 16.4 µM in the test on HCT-15; 14.2 µM (inactive) in the test with SNB-75; 28.8 µM (inactive) with OVCAR-5. For the same compound, the GI50 is 27.7 µM (inactive) in the test on Hs-578T; 16.9 µM (inactive) in the test with OVCAR-8; 21.4 µM (inactive) in the test on OVCAR-3; 17.8 µM (inactive) in the test with SF-295; 16.2 µM (inactive) in the test with U-251; 21 µM (inactive) in the test with RPMI-8226. In addition, the GI50 in the test with NCI-H522 is 11.5 µM (inactive); with DU-145, 26.7 µM (inactive); with SF-268, 24.5 µM (inactive); with SK-MEL-28 it was 27.4 µM (inactive); in the test on NCI-H23, 19.6 µM (inactive); with UO-31 it was 26.6 µM (inactive). The GI50 with MCF7 was 23.9 µM (inactive); in the test with NCI-H460, 16.2 µM (inactive).

Regarding `CO/C(C)=N/CCC1=CCCCC1`, the GI50 in the test on Malme-3M is > 100 µM (inactive); in the test on KM12 it was > 100 µM (inactive); with T47D it was > 100 µM (inactive); with HCT-15, > 100 µM; in the test on SNB-75 it was > 100 µM (inactive); in the test with OVCAR-5 it was > 100 µM (inactive). Besides, the GI50 in the test on Hs-578T is > 100 µM (inactive); in the test on OVCAR-8, > 100 µM (inactive); in the test with OVCAR-3, 89.1 µM (inactive); with SF-295 it was 55.5 µM (inactive); in the test with U-251, > 100 µM (inactive); with RPMI-8226, > 100 µM (inactive). Also, the GI50 in the test with NCI-H522, in the test with DU-145, in the test with SF-268, in the test on SK-MEL-28, with NCI-H23 and with UO-31 was > 100 µM (inactive) in each case. The GI50 in the test on MCF7 and with NCI-H460 was > 100 µM (inactive) throughout.

Turning to `c1ccc2c(c1)ncn2CCn1ccnc1`, the GI50 in the test on Malme-3M was > 100 µM (inactive); with KM12, > 100 µM (inactive); in the test with T47D, > 100 µM (inactive); with HCT-15, > 100 µM; in the test on SNB-75 it was > 100 µM (inactive); in the test on OVCAR-5, > 100 µM (inactive). Further, the GI50 in the test with Hs-578T, in the test with OVCAR-8, in the test on OVCAR-3, with SF-295, in the test on U-251 and in the test with RPMI-8226 was > 100 µM (inactive) throughout. Moreover, the GI50 with NCI-H522, with DU-145, in the test on SF-268, with SK-MEL-28, in the test with NCI-H23 and in the test on UO-31 was > 100 µM (inactive) each time. The GI50 in the test on MCF7 and in the test on NCI-H460 was > 100 µM (inactive) throughout.

The record behind these values is ChEMBL document CHEMBL1201862, “PubChem BioAssay data set” (2004).
